In the experiment the target is T1, ligand binding domain of the human mineralocorticoid receptor (hMR LBD) (Homo sapiens, UniProt P08235).
T1 construct: made in house; host or cells: Sf9 insect cells (baculovirus, pFastBac)
T1 sequence (P08235 729-984): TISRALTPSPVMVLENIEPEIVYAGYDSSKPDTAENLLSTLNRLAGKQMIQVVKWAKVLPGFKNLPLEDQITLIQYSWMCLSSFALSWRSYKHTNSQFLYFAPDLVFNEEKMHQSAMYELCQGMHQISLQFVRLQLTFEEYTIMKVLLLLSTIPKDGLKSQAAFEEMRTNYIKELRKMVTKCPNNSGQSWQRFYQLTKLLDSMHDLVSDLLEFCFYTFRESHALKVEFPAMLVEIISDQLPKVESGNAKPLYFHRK
In words: Mineralocorticoid receptor (MR) in vitro competitive binding assay, [3H]aldosterone displacement. To be noted: IR^TOTAL = sum of IR^AR/MR, IR^ER/MR, IR^GR/MR, IR^PR/MR. As for the experimental part:
Mineralocorticoid receptor (MR) binding assay: Spodoptera furgiperda (Sf9) insect cells (ATCC accession number CRL-1711) were maintained in culture in EX-CELL™ 420 serum free medium (JRH Biosciences, Inc.) at 27° C.
A recombinant baculovirus containing nucleotide sequences encoding the ligand binding domain of the human mineralocorticoid receptor (hMR) cloned into the pFastBac™ vector was generated using the Bac-to-Bac® Baculovirus Expression System Kit (Invitrogen) following the manufacturer's instructions. This recombinant baculovirus contains nucleotides 2401 through 3168 (SEQ ID NO: 13) of hMR, providing for expression of the ligand binding domain (LBD), amino acid residues 729-984 (SEQ ID NO: 14), of hMR (hMR LBD). Cultured Sf9 insect cells were transfected with this recombinant baculovirus following the manufacturer's instructions.
For the binding assay, a crude lysate of the hMR LBD-expressing insect cells was prepared. The crude lysate was diluted 12.5-fold with binding buffer (20 mM Tris-HCl pH 7.4, 1 mM EDTA, 1 mM dithiothreitol, 20 mM sodium tungstate, 50 mM KCl and 10% glycerol).
For the negative control sample, the diluted lysate was incubated with a 10 nM final concentration of the radioligand [1,2,6,7-^3H] aldosterone (Amersham Biosciences, catalogue # 434) for 3.5 h at 4° C. For test compounds and the positive control sample, the diluted lysate was incubated with various concentrations of test compound or with a 20 μM final concentration of spironolactone (Sigma, S-3378) as a reference compound for 45 min on ice, and was then incubated with a 10 nM final concentration of [1,2,6,7-^3H] aldosterone for 3.5 h at 4° C.
Using a CellHarvester (PerkinElmer, formerly Packard Biosciences), receptor/ligand complexes were retained on 96-well GF/B filters (PerkinElmer, formerly Packard Biosciences) while free radioligand passed through the filters. Scintillation counting of GF/B filter plates was performed using a TopCount NXT (PerkinElmer, formerly Packard Biosciences) to quantitate the amount of [1,2,6,7-^3H] aldosterone bound to the hMR LBD.
The IC50 of a test compound was determined from the concentration of test compound giving half-maximal displacement as obtained by nonlinear least-squares curve fitting to a one-site binding sigmoidal model using Prism 3.0 (Graph Pad Software, Inc., San Diego, US). The calculated IC50 values represent the average values calculated from the results of 1-3 experiments carried out in duplicate.
IC50 and inhibitory ratio calculations: To provide a measure of the potency of each test compound as an antagonist of MR, the IC50 of each test compound (IC50^Test) for ligand binding to MR and the IC50 of the known MR antagonists eplerenone (IC50^Ep) and spironolactone (IC50^Sp) for ligand binding to MR were used to calculate an IC50 ratio (RIC50) according to the following equations: RIC50^Ep/Test=IC50^Ep/IC50^Test and RIC50^Sp/Test=IC50^Sp/IC50^Test.
These individual inhibitory ratios were used to calculate a total inhibitory ratio (IR^TOTAL) according to the following equation: IR^TOTAL=IR^AR/MR+IR^ER/MR+IR^GR/MR+IR^PR/MR. B. Results and Discussion

Molecules are shown by their SMILES.

For `CCS[C@@H]1CC2=CC(=O)CC[C@]2(C)C2=CC[C@@]3(C)C(CC[C@@]34CCC(=O)O4)C21` (some centres unmarked) [Example 13], the “IR^TOTAL compared with the IR^TOTAL for eplerenone” value is “at least an order of magnitude greater than the IR^TOTAL for eplerenone” and the “IR^TOTAL compared with the IR^TOTAL for spironolactone” value is given as “at least an order of magnitude greater than the IR^TOTAL for spironolactone”.

The values are drawn from patent US20070066580A1, “Novel aldosterone antagonists and uses thereof” (Recordati Ireland Limited, priority 2005, published 2007).
